In patent US9212151B2, “Heterocyclic compounds useful for kinase inhibition” (Amitech Therapeutic Solutions, Inc., priority 2010, dated 2015):

Tests used:
Tumor cells (A549) = assay: MTT cell viability assay, compounds at 5, 1 and 0.2 μM, 48 hours; format: cell-based
How it was run: (§1)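 A549 cells were seeded at 2500/well in DMEM + 10% FBS, grown overnight, then exposed to compound for 48 h. Viability was read by MTT (5 mg/ml, 4 h), with formazan dissolved in DMSO and absorbance measured at 560/570 nm to give survival rate.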

[1] = as above; format: cell-based; conditions: human, A549 tumor cells; for viability at 48 h, 0.2 µM: 0.2 μM compound; for viability at 48 h, 1 µM: 1 μM compound; for viability at 48 h, 5 µM: 5 μM compound
How it was run: as §1

| SMILES | % Viability A549 (Tumor cells (A549); 0.2 μM) | % Viability A549 (Tumor cells (A549); 1 μM) | % Viability A549 (Tumor cells (A549); 5 μM) | viability at 48 h, 0.2 µM [1] | viability at 48 h, 1 µM [1] | viability at 48 h, 5 µM [1] |
| --- | --- | --- | --- | --- | --- | --- |
| Cc1cc(Oc2cccc(-c3nnc(Nc4cccc(C(F)(F)F)c4)[nH]3)c2)nc(N)n1 [Compound 95] | +++ (+++: >70%) | +++ (+++: >70%) | ++ (++: 50-70%) | – | – | – |
| COc1ccc2c(Oc3ccc(Nc4nnc(-c5cccc(Cl)c5)[nH]4)cc3)ccnc2c1 [Compound 198] | – | – | – | > 70% | > 70% | > 70% |
| CSc1nc(N)cc(Oc2ccc(-c3cnc(Nc4cccc(C(F)(F)F)c4)[nH]3)cc2)n1 [Compound 199] | – | – | – | < 50% | < 50% | < 50% |
| COc1ccc2c(Oc3ccc(-c4cnc(Nc5cccc(C(F)(F)F)c5)[nH]4)cc3)ccnc2c1 [Compound 200] | – | – | – | > 70% | > 70% | > 70% |
